2 compounds from patent US20160244802A1, “Protein Demethylases Comprising a JMJC Domain” (The University of North Carolina at Chapel Hill, priority 2005, published 2016) can be followed below.

The test system of assay [1] is PSA enhancer and NKX3.1 gene. As to the kind of experiment: ChIP assay in LNCaP cells. Particulars: 50 nM, 1 hour. The class given is cell-based. How it is done: (§1) Recombinant JMJD1A was mixed with in vitro translated […] AR in the absence or presence of R1881 (100 nM). After immunoprecipitation with anti-JHDM2A antibody, AR was detected by autoradiography. […] LNCaP cells were cultured in charcoal-stripped serum medium for three days and then treated without or with R1881 (50 nM) for 1 hour before being processed for ChIP analysis. […] LNCaP cells were transfected with a scramble (siCON), siJHDM2A or siLSD1 as indicated. Tubulin served as a loading control. […] The cells were treated as in FIG. 14B except the cells were collected for RNA isolation 8 hours after the R1881 treatment. […] The LNCaP cells were treated with siJHDM2A or siCON for three days and then 50 nM R1881 for 1 hour before processed for ChIP assays using antibodies as indicated.
For ChIP assay in LNCaP cells, the cells were cultured in charcoal-stripped serum medium for three days before treatment with R1881 (50 nM) for 1 hour. The ChIP assay was performed essentially as previously described (Yoon, et al. (2005) Mol. Cell Biol. 25:324-335). Primers for RT-PCR analysis of the PSA mRNA were 5′-GCCCACCCAGGAGCCAGCACT-3′ (SEQ ID NO:27) and 5′-GGCCCCCAGAATCACCCGAGCAG-3′ (SEQ ID NO:28).

Assay [2] relates to AR target genes PSA, NKX3.1 and TMPRSS22. As to the kind of experiment: Quantitative RT-PCR of AR target genes in LNCaP cells. The class given is cell-based. Particulars: 50 nM, 8 hours. Here is the method: as §1
For ChIP assay in LNCaP cells, the cells were cultured in charcoal-stripped serum medium for three days before treatment with R1881 (50 nM) for 1 hour. […]
To directly test and compare the role of JHDM2A and LSD1 in hormone-dependent transcriptional activation, we used siRNA to knockdown JHDM2A and LSD1 in LNCaP cells (FIG. 14C). We then evaluated the effects of JHDM2A or LSD1 knockdown on the hormone induced activation of three AR target genes, PSA, NKX3.1 and TMPRSS22, by quantitative RT-PCR. […]

Assay [3] concerns modified histone H3 peptide substrates (H3K4 me3, me2, me1). As to the kind of experiment: Histone demethylase assay with modified histone H3 peptide substrates, mass spectrometry. The class given is biochemical.

Consider `C[C@]1(O)CC[C@H]2[C@@H]3CCC4=CC(=O)CCC4=C3C=C[C@@]21C` [R1881], for which, in assay [1], the “binding of the AR to the PSA enhancer” value is reported as “strong binding”. For the same compound, the “transcription from AR target genes” value in assay [2] is recorded as “robustly activated transcription”.
Turning to “RBP2: Flag-tagged JmjC domain H3K4 demethylase expressed in SF9 cells by baculovirus, affinity purified”, in assay [3] (H3K4me1 peptide, in vitro), the “removal of the me1 modification state” value is “failed to catalyze removal”. The “demethylation of the modified substrate” value in assay [3] (H3K4me3 and me2 peptides, recombinant Flag-RBP2) is reported as 80-90%.
